Measurements: ChEMBL document CHEMBL1201861, “Genomics of Drug Sensitity in Cancer screening data, Wellcome Trust Sanger Institute”
pIC50: −log10 of the molar value.

Experiments:
Test in all cases: cells
[1] = tested on: COLO-824; assay type: functional, cell-based, Homo sapiens; conditions: Homo sapiens, COLO-824
Description: SANGER: Inhibition of human COLO-824 cell growth in a cell viability assay.

[2] = tested on: COR-L88; assay type: functional, cell-based, Homo sapiens; conditions: Homo sapiens, COR-L88;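 further: growth inhibition of COR-L88 cells, read out with a cell viability assay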
Description: SANGER: Inhibition of human COR-L88 cell growth in a cell viability assay.

[3] = tested on: D-263MG; assay type: functional, cell-based, Homo sapiens; conditions: Homo sapiens, D-263MG
Description: SANGER: Inhibition of human D-263MG cell growth in a cell viability assay.

[4] = tested on: D-502MG; assay type: functional, cell-based, Homo sapiens; conditions: Homo sapiens, D-502MG
Description: SANGER: Inhibition of human D-502MG cell growth in a cell viability assay.

[5] = tested on: DJM-1; assay type: functional, cell-based, Homo sapiens; conditions: Homo sapiens, DJM-1;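 further: growth inhibition of human DJM-1 cells, read out by a cell viability assay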
Description: SANGER: Inhibition of human DJM-1 cell growth in a cell viability assay.

[6] = tested on: ES6; assay type: functional, cell-based; conditions: Homo sapiens;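 further: growth inhibition of human ES6 cells, read out with a cell viability assay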
Description: SANGER: Inhibition of human ES6 cell growth in a cell viability assay.

[7] = tested on: ES7; assay type: functional, cell-based, Homo sapiens; conditions: Homo sapiens, ES7;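 further: growth inhibition of cultured human ES7 cells, read out as cell viability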
Description: SANGER: Inhibition of human ES7 cell growth in a cell viability assay.

[8] = tested on: ES8; assay type: functional, cell-based, Homo sapiens; conditions: Homo sapiens, ES8;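 further: growth inhibition of human ES8 cells, read out with a cell viability assay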
Description: SANGER: Inhibition of human ES8 cell growth in a cell viability assay.

[9] = tested on: EW-1; assay type: functional, cell-based, Homo sapiens; conditions: Homo sapiens, EW-1;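 further: growth inhibition of the human EW-1 cell line, read out by a cell viability assay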
Description: SANGER: Inhibition of human EW-1 cell growth in a cell viability assay.

[10] = tested on: EW-16; assay type: functional, cell-based, Homo sapiens; conditions: Homo sapiens, EW-16;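 further: growth inhibition of human EW-16 cells, read out as cell viability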
Description: SANGER: Inhibition of human EW-16 cell growth in a cell viability assay.

[11] = tested on: GR-ST; assay type: functional, cell-based, Homo sapiens; conditions: Homo sapiens, GR-ST
Description: SANGER: Inhibition of human GR-ST cell growth in a cell viability assay.

[12] = tested on: HCC1187; assay type: functional, cell-based, Homo sapiens; conditions: Homo sapiens, HCC1187;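 further: growth inhibition of HCC1187 cells, read out with a cell viability assay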
Description: SANGER: Inhibition of human HCC1187 cell growth in a cell viability assay.

[13] = tested on: HCE-T; assay type: functional, cell-based, Homo sapiens; conditions: Homo sapiens, HCE-T;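 further: cell viability assay read-out, reporting inhibition of HCE-T cell growth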
Description: SANGER: Inhibition of human HCE-T cell growth in a cell viability assay.

[14] = tested on: HH; assay type: functional, cell-based, Homo sapiens; conditions: Homo sapiens, HH
Description: SANGER: Inhibition of human HH cell growth in a cell viability assay.

[15] = tested on: K5; assay type: functional, cell-based, Homo sapiens; conditions: Homo sapiens, K5
Description: SANGER: Inhibition of human K5 cell growth in a cell viability assay.

[16] = tested on: KARPAS-45; assay type: functional, cell-based, Homo sapiens; conditions: Homo sapiens, KARPAS-45;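 further: inhibition of cell line growth, read out through a viability assay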
Description: SANGER: Inhibition of human KARPAS-45 cell growth in a cell viability assay.

[17] = tested on: LAN-6; assay type: functional, cell-based, Homo sapiens; conditions: Homo sapiens, LAN-6;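 further: growth inhibition of LAN-6 cells, determined with a cell viability assay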
Description: SANGER: Inhibition of human LAN-6 cell growth in a cell viability assay.

[18] = tested on: LB771-HNC; assay type: functional, cell-based; conditions: Homo sapiens;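 further: growth inhibition of LB771-HNC human cells, read out with a cell viability assay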
Description: SANGER: Inhibition of human LB771-HNC cell growth in a cell viability assay.

[19] = tested on: LNCaP-Clone-FGC; assay type: functional, cell-based, Homo sapiens; conditions: Homo sapiens, LNCaP-Clone-FGC
Description: SANGER: Inhibition of human LNCaP-Clone-FGC cell growth in a cell viability assay.

[20] = tested on: LS-1034; assay type: functional, cell-based, Homo sapiens; conditions: Homo sapiens, LS-1034
Description: SANGER: Inhibition of human LS-1034 cell growth in a cell viability assay.

[21] = tested on: ML-2; assay type: functional, cell-based, Homo sapiens; conditions: Homo sapiens, ML-2;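 further: growth inhibition of ML-2 cells, measured with a cell viability readout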
Description: SANGER: Inhibition of human ML-2 cell growth in a cell viability assay.

[22] = tested on: MMAC-SF; assay type: functional, cell-based; conditions: Homo sapiens;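 further: growth inhibition of human MMAC-SF cells, read out with a cell viability assay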
Description: SANGER: Inhibition of human MMAC-SF cell growth in a cell viability assay.

[23] = tested on: MOLT-16; assay type: functional, cell-based, Homo sapiens; conditions: Homo sapiens, MOLT-16;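 further: growth inhibition of human MOLT-16 cells, read out with a cell viability assay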
Description: SANGER: Inhibition of human MOLT-16 cell growth in a cell viability assay.

[24] = tested on: MZ2-MEL; assay type: functional, cell-based, Homo sapiens; conditions: Homo sapiens, MZ2-MEL;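 further: growth inhibition of MZ2-MEL cells read out with a cell viability assay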
Description: SANGER: Inhibition of human MZ2-MEL cell growth in a cell viability assay.

[25] = tested on: NB5; assay type: functional, cell-based, Homo sapiens; conditions: Homo sapiens, NB5;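 further: growth inhibition of NB5 cells, read out as cell viability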
Description: SANGER: Inhibition of human NB5 cell growth in a cell viability assay.

[26] = tested on: NB69; assay type: functional, cell-based, Homo sapiens; conditions: Homo sapiens, NB69;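 further: growth inhibition of NB69 cells, determined by a cell viability assay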
Description: SANGER: Inhibition of human NB69 cell growth in a cell viability assay.

[27] = tested on: NCI-H1155; assay type: functional, cell-based, Homo sapiens; conditions: Homo sapiens, NCI-H1155;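 further: cell growth inhibition measured by a viability assay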
Description: SANGER: Inhibition of human NCI-H1155 cell growth in a cell viability assay.

[28] = tested on: NCI-H1304; assay type: functional, cell-based, Homo sapiens; conditions: Homo sapiens, NCI-H1304;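 further: growth inhibition of the cancer cell line, measured in a cell viability assay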
Description: SANGER: Inhibition of human NCI-H1304 cell growth in a cell viability assay.

[29] = tested on: NCI-H1581; assay type: functional, cell-based, Homo sapiens; conditions: Homo sapiens, NCI-H1581;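 further: cell growth inhibition read out by a viability assay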
Description: SANGER: Inhibition of human NCI-H1581 cell growth in a cell viability assay.

[30] = tested on: NCI-H1648; assay type: functional, cell-based, Homo sapiens; conditions: Homo sapiens, NCI-H1648;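 further: cell viability assay measuring inhibition of NCI-H1648 cell growth, from the Sanger screening data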
Description: SANGER: Inhibition of human NCI-H1648 cell growth in a cell viability assay.

[31] = tested on: NCI-H720; assay type: functional, cell-based, Homo sapiens; conditions: Homo sapiens, NCI-H720;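 further: growth inhibition of human NCI-H720 cells determined by a cell viability assay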
Description: SANGER: Inhibition of human NCI-H720 cell growth in a cell viability assay.

[32] = tested on: NCI-H82; assay type: functional, cell-based, Homo sapiens; conditions: Homo sapiens, NCI-H82;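 further: growth inhibition of NCI-H82 cells, measured with a cell viability readout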
Description: SANGER: Inhibition of human NCI-H82 cell growth in a cell viability assay.

[33] = tested on: NMC-G1; assay type: functional, cell-based, Homo sapiens; conditions: Homo sapiens, NMC-G1;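 further: growth inhibition of the NMC-G1 cell line, measured with a cell viability read-out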
Description: SANGER: Inhibition of human NMC-G1 cell growth in a cell viability assay.

[34] = tested on: OMC-1; assay type: functional, cell-based, Homo sapiens; conditions: Homo sapiens, OMC-1;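 further: growth inhibition of the OMC-1 cell line, measured by a cell viability assay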
Description: SANGER: Inhibition of human OMC-1 cell growth in a cell viability assay.

[35] = tested on: P30-OHK; assay type: functional, cell-based, Homo sapiens; conditions: Homo sapiens, P30-OHK;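 further: growth inhibition of the P30-OHK cell line, read out with a cell viability assay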
Description: SANGER: Inhibition of human P30-OHK cell growth in a cell viability assay.

[36] = tested on: RPMI-8226; assay type: functional, cell-based, Homo sapiens; conditions: Homo sapiens, RPMI-8226
Description: SANGER: Inhibition of human RPMI-8226 cell growth in a cell viability assay.

[37] = tested on: Ramos-2G6-4C10; assay type: functional, cell-based, Homo sapiens; conditions: Homo sapiens, Ramos-2G6-4C10;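 further: growth inhibition of the cell line, measured by a cell viability read-out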
Description: SANGER: Inhibition of human Ramos-2G6-4C10 cell growth in a cell viability assay.

[38] = tested on: SBC-1; assay type: functional, cell-based, Homo sapiens; conditions: Homo sapiens, SBC-1;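 further: cell viability assay measuring growth inhibition of the SBC-1 cell line, IC50 being the concentration that halves growth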
Description: SANGER: Inhibition of human SBC-1 cell growth in a cell viability assay.

[39] = tested on: SCH; assay type: functional, cell-based, Homo sapiens; conditions: Homo sapiens, SCH;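 further: growth inhibition of human SCH cells, read out in a cell viability assay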
Description: SANGER: Inhibition of human SCH cell growth in a cell viability assay.

[40] = tested on: SF-268; assay type: functional, cell-based, Homo sapiens; conditions: Homo sapiens, SF-268;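 further: growth inhibition of SF-268 cells determined with a cell viability assay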
Description: SANGER: Inhibition of human SF268 cell growth in a cell viability assay.

[41] = tested on: SK-N-FI; assay type: functional, cell-based, Homo sapiens; conditions: Homo sapiens, SK-N-FI;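 further: cell viability assay measuring growth inhibition of human SK-N-FI cells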
Description: SANGER: Inhibition of human SK-N-FI cell growth in a cell viability assay.

[42] = tested on: SK-UT-1; assay type: functional, cell-based, Homo sapiens; conditions: Homo sapiens, SK-UT-1;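 further: growth inhibition of SK-UT-1 cells, measured by a cell viability assay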
Description: SANGER: Inhibition of human SK-UT-1 cell growth in a cell viability assay.

[43] = tested on: SW872; assay type: functional, cell-based, Homo sapiens; conditions: Homo sapiens, SW872;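 further: growth inhibition of SW872 cells, read out by a viability assay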
Description: SANGER: Inhibition of human SW872 cell growth in a cell viability assay.

[44] = tested on: A388; assay type: functional, cell-based; conditions: Homo sapiens;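 further: growth inhibition of human A388 cells, read out with a cell viability assay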
Description: SANGER: Inhibition of human A388 cell growth in a cell viability assay.

[45] = tested on: ALL-PO; assay type: functional, cell-based, Homo sapiens; conditions: Homo sapiens, ALL-PO;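 further: growth inhibition of ALL-PO cells, read out by a cell viability assay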
Description: SANGER: Inhibition of human ALL-PO cell growth in a cell viability assay.

[46] = tested on: TE-6; assay type: functional, cell-based, Homo sapiens; conditions: Homo sapiens, TE-6;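 further: growth inhibition of TE-6 cells, read out with a cell viability assay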
Description: SANGER: Inhibition of human TE-6 cell growth in a cell viability assay.

[47] = tested on: TE-9; assay type: functional, cell-based, Homo sapiens; conditions: Homo sapiens, TE-9;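 further: cell growth inhibition, measured with a cell viability readout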
Description: SANGER: Inhibition of human TE-9 cell growth in a cell viability assay.

[48] = tested on: CAS-1; assay type: functional, cell-based, Homo sapiens; conditions: Homo sapiens, CAS-1;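 further: growth inhibition of CAS-1 cells, measured with a cell viability assay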
Description: SANGER: Inhibition of human CAS-1 cell growth in a cell viability assay.

[49] = tested on: HCC2157; assay type: functional, cell-based, Homo sapiens; conditions: Homo sapiens, HCC2157;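 further: growth inhibition of the cancer cell line, read out as cell viability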
Description: SANGER: Inhibition of human HCC2157 cell growth in a cell viability assay.

[50] = tested on: LB996-RCC; assay type: functional, cell-based, Homo sapiens; conditions: Homo sapiens, LB996-RCC
Description: SANGER: Inhibition of human LB996-RCC cell growth in a cell viability assay.

## CC1=C(/C=C/C(C)=C/C=C/C(C)=C/C(=O)O)C(C)(C)CCC1 [TRETINOIN]
[1]
  pIC50: < 5.00
[2]
  pIC50: 5.41
[3]
  pIC50: < 5.00
[4]
  pIC50: < 5.00
[5]
  pIC50: < 5.00
[6]
  pIC50: < 5.00
[7]
  pIC50: < 5.00
[8]
  pIC50: < 5.00
[9]
  pIC50: < 5.00
[10]
  pIC50: < 5.00
[11]
  pIC50: < 5.00
[12]
  pIC50: < 5.00
[13]
  pIC50: < 5.00
[14]
  pIC50: 6.71
[15]
  pIC50: < 5.00
[16]
  pIC50: 5.59
[17]
  pIC50: < 5.00
[18]
  pIC50: < 5.00
[19]
  pIC50: < 5.00
[20]
  pIC50: < 5.00
[21]
  pIC50: 5.40
[22]
  pIC50: < 5.00
[23]
  pIC50: < 5.00
[24]
  pIC50: < 5.00
[25]
  pIC50: < 5.00
[26]
  pIC50: < 5.00
[27]
  pIC50: < 5.00
[28]
  pIC50: < 5.00
[29]
  pIC50: < 5.00
[30]
  pIC50: 5.01
[31]
  pIC50: 5.99
[32]
  pIC50: < 5.00
[33]
  pIC50: < 5.00
[34]
  pIC50: < 5.00
[35]
  pIC50: < 5.00
[36]
  pIC50: 6.00
[37]
  pIC50: < 5.00
[38]
  pIC50: < 5.00
[39]
  pIC50: < 5.00
[40]
  pIC50: < 5.00
[41]
  pIC50: < 5.00
[42]
  pIC50: < 5.00
[43]
  pIC50: < 5.00
[44]
  pIC50: < 5.00
[45]
  pIC50: 5.16
[46]
  pIC50: < 5.00
[47]
  pIC50: < 5.00
[48]
  pIC50: < 5.00

## CS(=O)(=O)N1CCN(Cc2cc3nc(-c4cccc5[nH]ncc45)nc(N4CCOCC4)c3s2)CC1 [PICTILISIB]
[1]
  pIC50: < 5.40
[3]
  pIC50: 6.14
[4]
  pIC50: 5.63
[5]
  pIC50: < 5.40
[6]
  pIC50: < 5.40
[7]
  pIC50: 6.47
[8]
  pIC50: 6.09
[9]
  pIC50: < 5.40
[10]
  pIC50: 5.73
[11]
  pIC50: < 5.40
[12]
  pIC50: < 5.40
[49]
  pIC50: 5.63
[13]
  pIC50: < 5.40
[14]
  pIC50: 6.95
[17]
  pIC50: < 5.40
[18]
  pIC50: < 5.40
[50]
  pIC50: 5.91
[20]
  pIC50: < 5.40
[23]
  pIC50: < 5.40
[24]
  pIC50: 5.44
[25]
  pIC50: 6.02
[26]
  pIC50: 6.61
[27]
  pIC50: < 5.40
[28]
  pIC50: < 5.40
[29]
  pIC50: < 5.40
[30]
  pIC50: 6.00
[32]
  pIC50: < 5.40
[33]
  pIC50: < 5.40
[34]
  pIC50: 6.12
[35]
  pIC50: 6.14
[36]
  pIC50: < 5.40
[37]
  pIC50: 5.79
[39]
  pIC50: < 5.40
[40]
  pIC50: < 5.40
[41]
  pIC50: < 5.40
[43]
  pIC50: 6.14
[44]
  pIC50: < 5.40
[45]
  pIC50: < 5.40
[46]
  pIC50: < 5.40
[47]
  pIC50: < 5.40
[48]
  pIC50: < 5.40

## CO[C@@H]1[C@H](N(C)C(=O)c2ccccc2)C[C@H]2O[C@]1(C)n1c3ccccc3c3c4c(c5c6ccccc6n2c5c31)C(=O)NC4 [MIDOSTAURIN]
[16]
  pIC50: < 6.29
[26]
  pIC50: < 6.29
[42]
  pIC50: 6.48
[43]
  pIC50: < 6.29
[48]
  pIC50: 6.74
